Assay results taken from patent US6747021B2, “Cryptophycin compound” (Eli Lilly and Company, priority 2000, dated 2004).
Where two headings read alike, the source gives them in different places.

How the values were obtained:
[1] = tested on: COLON ADENOCARCINOMA 51/A; test: Early stage murine colon adenocarcinoma 51/A subcutaneous tumor assay; format: in vivo; conditions: IV 28 mg/kg/inj days 3,5,7,9,11; total dose 140 mg/kg; CDF female mice
From the text: (§1) Inhibition of tumors transplanted into mice is an accepted procedure for studying the efficacy of antitumor agents (Corbett, et al., In vivo Methods for Screening and Preclinical Testing; Use of rodent solid tumors for drug discovery., In: Anticancer Drug Development Guide: Preclinical Screening, Clinical Trials, and Approval, B. Teicher (ed), Humana Press Inc., Totowa, N.J., Chapter 5, pages 75-99 (1997); (Corbett, et al., Int. J. Pharmacog., 33, Supplement, 102-122 (1995)). Murine tumors or human xenographs were implanted essentially as described by Corbett in In vivo Methods for Screening and Preclinical Testing; Use of rodent solid tumors for drug discovery. Briefly, the murine tumor or human xenograph was implanted subcutaneously using either 12-gauge trocar implants or counted number of cells. The location for the trocar insertion is midway between the axillary and inguinal region along the side of the mouse. The trocar is slipped approximately ¾ of an inch subcutaneously up toward the axilla before discharging the tumor fragment, and pinching the skin as the trocar is removed. Alternatively, human tumor cells prepared from a […] of donor tumors (5×10^6 cells) were implanted subcutaneously in a hind-leg of a male or female nude mouse (Charles River). Either a test compound in vehicle or vehicle alone was administered by intravenous bolus injection (iv), intraperitoneal injection (ip), or oral gavage (po). Each treatment group, as well as a group of untreated control animals, consisted of five animals per group in each experiment. Subcutaneous tumor response was monitored by tumor volume measurement performed twice each week over the course of the experiment (60-120 days). Body weights were taken as a general measure of toxicity. The subcutaneous tumor data were analyzed by determining the median tumor weight for each treatment group over the course of the experiment and calculating the tumor growth delay as the difference in days for the treatment versus the control tumors to reach a volume of either 500 or 1000 mm^3.
(§2) Cryptophycin-309 (309) was tested against a variety of murine and human tumors substantially as described supra. Cryptophycin-55 glycinate (55-GLY), Taxol, and Adriamycin (Adria) were also included in certain tests for purposes of comparison. Cryptophycin 55 glycinate is known in the art (WO 98/08505, Example 9) and has the following structure: [drawing 9]
(§3) Tumor Weight(mg)=(a×b^2)/2 where a=tumor length (mm) and b=tumor width (mm).
(§4) Tumor Growth Delay=T−C where T is the median time (days) required for the treatment group tumors to reach a predetermined size, and C is the median time (days) for the control group tumors to reach the same size. Tumor-free survivors are excluded from this calculation, and are tabulated separately (Tumor Free).
(§5) Log Kill=Tumor Growth Delay/(3.32)(Td)
(§6) where Tumor Growth Delay is as previously defined and Td is tumor volume doubling time (days), estimated from the best fit straight line from a log-linear growth plot of the control group of tumors in exponential growth (100-800 mg range)
(§7) %T/C mass—The treatment and control groups are measured when the control group tumors reach approximately 700 to 1200 mg in size (median group). The median tumor weight of each group is determined (including zeros). The T/C value in percent is an indication of antitumor effectiveness. A T/C≦42% is considered significant antitumor activity. A T/C<10% is considered to indicate highly significant antitumor activity.
(§8) Body Weight Loss Nadir—A body weight loss nadir (mean of group) of greater than 20% or drug deaths greater than 20% are considered to indicate an excessively toxic dosage in single course trials.
(§9) Activity Rating—the Activity Rating is derived from the Log Kill according to the following table: […]

[2] = tested on: HUMAN COLON ADENOCARCINOMA 15; format: in vivo; conditions: Balb/C SCID female mice
From the text: as §1, §2, §3, §4, §5, §6, §7, §8, §9

[3] = Toxicity relative to other cryptophycins (general statement); conditions: compared with other cryptophycins; no test described
HUMAN COLON ADEN[…]-116 = test: Early stage human colon adenocarcinoma HCT-116 xenograft assay; format: in vivo; conditions: Balb/C SCID female mice
From the text: as §1, §2, §3, §4, §5, §6, §7, §8, §9

[4] = IV 16.5 mg/kg/inj days 3,5,7,9,11, total dose 82.5 mg/kg
[5] = IV 25 mg/kg/inj days 3,5,7,9,11, total dose 125 mg/kg
[6] = IV 38 mg/kg/inj days 3,5,7,9,11, total dose 190 mg/kg

With `COc1ccc(C[C@H]2NC(=O)/C=C/C[C@@H]([C@H](C)[C@@H](OC(=O)CN)[C@@H](Cl)c3ccccc3)OC(=O)[C@H](CC(C)(C)C)OC(=O)[C@H](C)CNC2=O)cc1Cl` [Cryptophycin 309, Cryptophycin-309] as the compound, how does the “% T/C MASS” value [1] read?
Its value is 0%.

And the “ACTIVITY RATING” value [1]?
Its value is “+++ (2.0-2.8)”.

And the “DRUG DEATHS” value [1]?
Its value is 0/6.

And the “GROWTH DELAY” value [1]?
The value was 20.1 days.

What about the “LOG KILL” value [1] of the same compound?
The value was 2.4.

And the “MEDIAN TUMOR WEIGHT” value [1]?
The value was 0 mg.

What about the “% T/C MASS” value [2, 4] of the same compound?
Its value is 11%.

What about the “ACTIVITY RATING” value [2, 4] of the same compound?
The value was “+++ (2.0-2.8)”.

What about the “DRUG DEATHS” value [2, 4] of the same compound?
The value was 0/5.

And the “GROWTH DELAY” value [2, 4]?
The value was 24.5 days.

What about the “LOG KILL” value [2, 4] of the same compound?
The value was 2.5.

And the “MEDIAN TUMOR WEIGHT” value [2, 4]?
The value was 126 mg.

What about the “% T/C MASS” value [2, 5] of the same compound?
Its value is 0%.

And the “ACTIVITY RATING” value [2, 5]?
The value was “++++ (>2.8)”.

And the “DRUG DEATHS” value [2, 5]?
Its value is 0/5.

What about the “GROWTH DELAY” value [2, 5] of the same compound?
Its value is 31.5 days.

What about the “LOG KILL” value [2, 5] of the same compound?
Its value is 3.2.

What about the “MEDIAN TUMOR WEIGHT” value [2, 5] of the same compound?
Its value is 0 mg.

What about the “% T/C MASS” value [2, 6] of the same compound?
Its value is 0%.

What about the “ACTIVITY RATING” value [2, 6] of the same compound?
The value was “++++ (>2.8)”.

What about the “DRUG DEATHS” value [2, 6] of the same compound?
The value was 0/5.

And the “GROWTH DELAY” value [2, 6]?
Its value is 32.5 days.

What about the “LOG KILL” value [2, 6] of the same compound?
The value was 3.3.

What about the “MEDIAN TUMOR WEIGHT” value [2, 6] of the same compound?
The value was 0 mg.

What about the toxicity [3] of the same compound?
The toxicity was “lower toxicity than other cryptophycins”.

And the “% T/C MASS” value (HUMAN COLON ADEN[…]-116; [4])?
The value was 0%.

What about the “ACTIVITY RATING” value (HUMAN COLON ADEN[…]-116; [4]) of the same compound?
Its value is “+++ (2.0-2.8)”.

What about the “DRUG DEATHS” value (HUMAN COLON ADEN[…]-116; [4]) of the same compound?
The value was 0/5.

What about the “GROWTH DELAY” value (HUMAN COLON ADEN[…]-116; [4]) of the same compound?
The value was 22 days.

And the “LOG KILL” value (HUMAN COLON ADEN[…]-116; [4])?
The value was 2.65.

And the “MEDIAN TUMOR WEIGHT” value (HUMAN COLON ADEN[…]-116; [4])?
Its value is 0 mg.

What about the “% T/C MASS” value (HUMAN COLON ADEN[…]-116; [5]) of the same compound?
Its value is 0%.

What about the “ACTIVITY RATING” value (HUMAN COLON ADEN[…]-116; [5]) of the same compound?
Its value is “++++ (>2.8)”.

What about the “DRUG DEATHS” value (HUMAN COLON ADEN[…]-116; [5]) of the same compound?
Its value is 0/5.

What about the “GROWTH DELAY” value (HUMAN COLON ADEN[…]-116; [5]) of the same compound?
The value was 29.5 days.

And the “LOG KILL” value (HUMAN COLON ADEN[…]-116; [5])?
The value was 3.6.

And the “MEDIAN TUMOR WEIGHT” value (HUMAN COLON ADEN[…]-116; [5])?
The value was 0 mg.

What about the “% T/C MASS” value (HUMAN COLON ADEN[…]-116; [6]) of the same compound?
Its value is 0%.

What about the “ACTIVITY RATING” value (HUMAN COLON ADEN[…]-116; [6]) of the same compound?
Its value is “++++ (>2.8)”.

And the “DRUG DEATHS” value (HUMAN COLON ADEN[…]-116; [6])?
The value was 0/5.

What about the “GROWTH DELAY” value (HUMAN COLON ADEN[…]-116; [6]) of the same compound?
Its value is 34 days.

What about the “LOG KILL” value (HUMAN COLON ADEN[…]-116; [6]) of the same compound?
Its value is 4.1.

What about the “MEDIAN TUMOR WEIGHT” value (HUMAN COLON ADEN[…]-116; [6]) of the same compound?
Its value is 0 mg.
